Reference: patent US20220372013A2, “PIPERIDINE-2,6-DIONE DERIVATIVES AND CROHN'S DISEASE TREATING” (Tianjin Hemay Pharmaceutical Sci-Tech Co., Ltd, priority 2016, published 2022)

Columns and labels:
[1] = test system: DNBS-Induced Inflammatory Bowel Disease Models in Rats; assay: Biological Example 2: DNBS-induced inflammatory bowel disease models in rats; assay type: in vivo, Wistar rats
Method: 110 male Wistar rats were fasted for 40 hours. A 5% glucose injection (10 mL/Kg) was administered subcutaneously during fasting. 48 rats with normal conditions and moderate body weight were selected from the fasting rats. The animals were randomly divided into […] according to the body weight: normal control group, model control group, sulfasalazine group (300 mg/Kg), dexamethasone group (0.1 mg/Kg), the compound in Example 26 group (30 mg/kg) and the compound in Example 27 group (30 mg/kg), with 8 rats in each group. The animals were anesthetized with isoflurane. A specially made gavage device (made by a rat gavage device having the diameter of 2 mm, which was nested on a mouse gavage device having the diameter of 1 mm) was slowly inserted into the enteric cavity at 8 cm from the anus. The model control group, the compound in Example 26 group and the compound in Example 27 group were administered with 0.5 mL of 50 mg/mL DNBS in 30% ethanol solution. The normal control group was administered with 0.5 mL of 30% ethanol solution. The animals were inverted in anesthesia for 15 minutes after the gavage device was removed. The day when the model was prepared was the first day of the experiment. After 4 hours of DNBS induction, the corresponding drug or the corresponding volume of 1% CMC-Na was administered once per day. On the sixth day of the experiment, the animals were euthanized to observe the results of each index so as to score the colon adhesion degree, measure the length of colon and ulcer area, weigh colon and calculate the colon weight to length ratio.
The compound in Example 26 and Example 27, sulfasalazine and dexamethasone: Preparation Method: Suspended with 1% CMC-Na, and prepared when it was needed.
Levene's Test for homogeneity of data was performed with Spss. Where the data were homogeneous (P>0.05), one-way ANOVA LSD test was performed. Where the analysis of variance was significant (P≤0.05), Dunnett's multiple comparison (parameter method) was performed. Where the results of Levene's Test were significant (P≤0.05), Kruskal-Wallis nonparametric test was performed. Where the results of Kruskal-Wallis nonparametric test were significant (P≤0.05), Mann-Whitney U test was performed for pairwise comparison.

[2] = test system: DNBS-Induced Inflammatory Bowel Disease Models in Rats; assay: Biological Example 1: DNBS-induced inflammatory bowel disease models in rats; assay type: in vivo, Wistar rats; settings: for Adhesion Degree / Colon MPO Activity / Colon Weight / Colon weight to length ratio / Ulcer Area: sixth day, Mean ± SD
Method: Wistar rats, male, body weight of 100-120 g.
90 male Wistar rats were fasted for 40 hours. A 5% glucose injection was administered subcutaneously during fasting. 60 rats with normal conditions and moderate body weight were selected from the fasting rats. The animals were randomly divided into 6 groups according to the body weight: normal control group, model control group, sulfasalazine group (300 mg/Kg), and the compound in Example 27 groups consisting of 5, 15 and 30 mg/Kg dose groups. There were 10 rats in each group. The animals were anesthetized with ether. A specially made gavage device (made by a rat gavage device having the diameter of 2 mm, which was nested on a mouse gavage device having the diameter of 1 mm) was slowly inserted into the enteric cavity at 8 cm from the anus. The model control group, the sulfasalazine group and the compound in Example 27 groups were administered with 0.5 mL of 50 mg/mL DNBS in 30% ethanol solution. The normal control group was administered with 0.5 mL of 30% ethanol solution. The animals were inverted in anesthesia for 15 minutes after the gavage device was removed. The day when the model was prepared was the first day of the experiment. After 4 hours of DNBS induction, the corresponding drug or the corresponding volume of 1% CMC-Na was administered once per day. The body weights were recorded and the stool characteristics were scored. On the sixth day of the experiment colon tissues were taken from the animals to observe the results of each index.
The compound in Example 27 and sulfasalazine: Preparation Method: Suspended with 1% CMC-Na, and prepared when it was needed.
Animals were euthanized on the sixth day of the experiment to observe the results of each index. After the animals were sacrificed, colons were obtained. The adhesion degree of colon was observed and the length of the colon was measured. The ulcer area was calculated after removing the contents in the colon and the weight of the colon tissue was weighed. The colon tissue was longitudinally divided into two parts. One part of the colon tissue was fixed in 10% formalin solution for later use. The other part of the colon tissue was put into the liquid nitrogen to quickly frozen, and then was reserved at −80° C. for the detection of MPO.
Calculation method for ulcer area: length of ulcer point (cm)×width of ulcer point (cm).
The frozen tissue was ground into powder in liquid nitrogen. An appropriate amount of the powder was weighed and was added into 50 mM potassium phosphate solution (containing 0.5% cetyltrimethylammonium bromide) to give a 25 mg/mL solution. The resultant solution was homogenized by an electric homogenizer. 1 mL of suspension was centrifuged to give a supernatant. 7 μL of the supernatant was added into a 96-well plate and 200 μL of o-dianisidine mixture (containing 0.167 mg/mL o-dianisidine and 0.0006% H2O2 potassium phosphate buffer). OD values of the resultant solution at 0, 30, 60, and 90 s were detected at 450 nm of the microplate reader.
Test for homogeneity of variance was performed with Spss13.0. Where variance of data was homogeneous (P>0.05), one-way ANOVA LSD test was performed. Where the analysis of variance was significant (P<0.05), then Dunnett's multiple comparison (parameter method) or Kruskal-Wallis non-parametric test was performed. Where the results of Kruskal-Wallis non-parametric test were significant (P<0.05), the Mann-Whitney U test was performed for pairwise comparison.

[3] = 30 mg/Kg i.g. qd × 6, sixth day, Mean ± SD

## COCCN1C(=O)CCC(N2C(=O)c3cccc(N)c3C2=O)C1=O (centres unmarked) [Example 27, 4-amino-2-(1-(2-methoxyethyl)-2,6-dioxopiperidin-3-yl)isoindolin-1,3-dione]
[1]; [3]
  Adhesion Degree: 0.9 ± 0.8 Points
  Colon Length: 12.9 ± 2.3 cm
  Colon Weight: 1737.9 ± 410.6 mg
  Ulcer Area: 2.0 ± 1.9 cm^2
[1]; 30 mg/kg i.g. qd × 6
  therapeutic effects on the model (in words): good therapeutic effects
[1]; fourth day of the experiment, compared with model control group, doses as in Table 7
  growth rate of the body weight (in words): higher than that in the model control group
[2]; 5 mg/Kg i.g. qd × 6
  Adhesion Degree: 0.4 ± 0.7 Point
  Colon MPO Activity: 20.3 ± 19.8 U/mg
  Colon Weight: 1775.7 ± 321.0 mg
  Colon weight to length ratio: 144.2 ± 30.5 mg/cm
  Ulcer Area: 0.8 ± 0.9 cm^2
[2]; 5 mg/Kg, 15 mg/Kg and 30 mg/Kg
  therapeutic effect (in words): a certain dose effect and a good therapeutic effect without the weight loss of animals
[2]; 15 mg/Kg i.g. qd × 6
  Adhesion Degree: 0.1 ± 0.3 Point
  Colon MPO Activity: 16.7 ± 9.8 U/mg
  Colon Weight: 1668.7 ± 245.3 mg
  Colon weight to length ratio: 127.1 ± 13.7 mg/cm
  Ulcer Area: 0.7 ± 0.9 cm^2
[2]; 30 mg/Kg i.g. qd × 6
  Adhesion Degree: 0.1 ± 0.3 Point
  Colon MPO Activity: 15.1 ± 13.0 U/mg
  Colon Weight: 1534.7 ± 156.2 mg
  Colon weight to length ratio: 117.7 ± 19.4 mg/cm
  Ulcer Area: 0.3 ± 0.5 cm^2
[2]; 30 mg/Kg, vs model control group
  reduction of the ulcer area: about 80%
